Legend:
[1] = PK studies of ITE in male nude mice (single dosing); format: in vivo; conditions: for AUC / half-life: male, nude, mouse, plasma
Procedure: Male nude mice were also used in PK (pharmacokinetic) studies. For i.v. injection, ITE at 1 mg/kg b.w. was administered with DMSO as vehicle via tail vein. For i.p. Injection, ITE at 10, 40, and 80 mg/kg b.w. was delivered with DMSO via lower left abdominal quadrant. In p.o. injection, ITE at 40 and 80 mg/kg b.w. were administered with a vehicle of Labrasol:PEG 400 (2:8, v/v) via oral gavage. Every 15 mice were given a single injection at each dosing level and every 3 of the dosed mice were used to collect blood sample at each time point (0, 0.083, 0.25, 0.5, 1, 2, 4, 8, 24 hr.). Animals were rotated to be sampled twice each but the duration between the two sampling times was at least 110 min. The animal was anesthetized under Isoflurane and restrained manually. Approximately 150 μl of whole blood at each time point is collected (via retro-orbital puncture) into a K2-EDTA tube. Blood samples were put on ice and processed to plasma (4,000 g, 5 min, 4° C.) within 15 min post sampling. Plasma samples were stored at −80° C. until analysis. An aliquot of 20 μl plasma sample was added with 20 μl of an internal standard (Glipizide, 500 ng/ml in ΔCN, for extraction efficiency) to 120 μl of ΔCN (acetonitrile). The mixture was vortexed at 1,500 rpm for 2 min. and then centrifuged at 12,000 rpm for 5 min. Five (5) μl of the supernatant was injected into an LC-MS/MS system (API 4000, Foster City, Calif., USA). A Gemini-C18 column (2.0×50 mm, 5 μm) was used and the LC (liquid chromatography) was run at a flow rate of 0.45 ml/min. with the following program: where Pump A was for 1 mM NH4OAc (ammonium acetate) in water plus 0.025% FA (formic acid) whereas Pump B for 1 mM NH4OAC in acetonitrile plus 0.025% FA. The negative ionization process of the mass spectrometry was operated at an APCI (Atmospheric Pressure Chemical Ionization) mode while the detection at a MRM (Multiple Reaction Monitoring) mode. ITE was identified by recognizing an LC retention time of 2.5 min. and two mass peaks at 285.0 (before collision) and 142.0 m/z (after collision) while the internal standard of 2.35 min. and two mass peaks at 444.3 (before collision) and 319.3 m/z (after collision). ITE was quantified by a standard curve generated every time by a series of known quantities of ITE running through both the extraction/precipitation process after mixing with mouse plasma and the LC-MS/MS system. The WinNonlin V5.2 statistics software (Pharsight Corporation, California, USA) was used to generate PK parameters such as Cmax, Tmax, T1/2, and AUC (Area under Curve) etc. using a non-compartmental model. Results

[2] = test system: Ketr-3 (human kidney cancer) xenografts; assay: Ketr-3 xenograft growth inhibition; format: in vivo; conditions: ITE 100-200 mg/kg i.p. once daily
Procedure: All the procedures related to animal handling, care, and the treatment in the study were performed following guidelines of KeyGen Biotechn Co., Ltd. (Nanjing, China), a contract research organization we hired, based on the guidance of the Association for Assessment and Accreditation of Laboratory Animal Care (AAALAC). Animals were checked for any effects of tumor growth and drug treatment on normal behavior such as mobility, food and water consumption, body weight gain/loss (bodyweights were measured every two days), eye/hair matting, and any other abnormal effect. Death and observed clinical signs were recorded. Individual animals with a tumor volume exceeding 3,000 mm^3 or animals of a group with a mean tumor volume exceeding 2,000 mm^3 were euthanized. In addition, animals showing signs of severe distress and/or pain or losing the capability of accessing adequate food or water were humanely sacrificed.
Cell lines HCT116, Siha, MFC were cultured in DMEM medium (high glucose) supplemented with 10% fetal bovine serum (FBS), SW116 and T24 in RPMI-1640 medium with 10% FBS, M14 and A375 in DMEM medium (high glucose) with 10% calf serum (CS), SGC7901 and Ketr-3 in RPMI-1640 medium with 10% CS, and CFPAC-1 in IMDM medium with 10% FBS. All of the cells were cultured, in the presence of 100 U/ml penicillin and 100 μg/ml streptomycin, at 37° C. in an atmosphere of 5% CO2 in air. […] The cells growing in an exponential phase were harvested and counted for tumor inoculation. Cell lines 5180 and U14 were maintained in ascites (peritoneal cavity fluid) of mice and were harvested and counted for tumor inoculation. […]
Tumor volume was measured every two days in two dimensions using a caliper and the volume was calculated with a formula of: V=0.5 a×b^2, where a and b are the long and short diameter (in mm) of a tumor, respectively. […] The TGD was calculated as: TGD=T−C, where T was the time (in days) required for tumors in a drug treated group to reach a predetermined mean tumor volume and C the time (in days) in the control group to reach the same volume. […]

[3] = iv, 1 mg/kg b.w. bolus i.v. in DMSO

With `COC(=O)c1csc(C(=O)c2c[nH]c3ccccc23)n1` [ITE, 2-(1′H-indole-3′-carbonyl)-thiazole-4-carboxylic acid methyl ester] the “efficiency of absorption compared with i.v. injection” value ([1]; i.p. injection in DMSO) was “below 10%”, the AUC ([1]; ip, 10 mg/kg b.w. i.p. in DMSO) was 0.197 µg·h/mL and the half-life ([1]; ip, 10 mg/kg b.w. i.p. in DMSO) was 1.13 h. It also gave an AUC ([1]; ip, 40 mg/kg b.w. i.p. in DMSO) of 0.332 µg·h/mL, a half-life ([1]; ip, 40 mg/kg b.w. i.p. in DMSO) of 1.61 h and an AUC ([1]; ip, 80 mg/kg b.w. i.p. in DMSO) of 0.499 µg·h/mL. The half-life ([1]; ip, 80 mg/kg b.w. i.p. in DMSO) was 5.17 h, the AUC [1, 3] was 0.256 µg·h/mL and the half-life [1, 3] was 0.1 h. The AUC ([1]; po, 40 mg/kg b.w. p.o. in Labrasol:PEG 400 (2:8, v/v)) was 0.107 µg·h/mL, the AUC ([1]; po, 80 mg/kg b.w. p.o. in Labrasol:PEG 400 (2:8, v/v)) was 0.097 µg·h/mL and the absorption efficiency ([1]; p.o. in Labrasol:PEG 400 (2:8, v/v)) was “around 1%”. For the same compound, the TGD ([2]; TGD at Vol. 500) was 9 days, the “TGI (%)” value ([2]; TGI at day 28, TGI=(1−ΔT/ΔC)×100%) was 74% and the “Weight Loss” value ([2]; end of therapy relative to beginning) was 13%.
